Experiments:
[1] = target: T1, GABAA channels composed of α1β3 subunits (Rattus norvegicus, UniProt P62813+P63079); experiment: Modulation of IGABA, two-microelectrode voltage-clamp on recombinant GABAA receptors expressed in Xenopus laevis oocytes; assay type: cell-based; settings: for EC50 / Hill-Coefficient (nH): GABA EC3-5; for Emax: GABA EC3-5, read-out: Maximum stimulation of IGABA (EC3-5)
T1 construct: expressed in transfected cells; host or cells: Xenopus laevis oocytes injected with cRNA transcribed from cDNA in pCMV vector
T1 sequence (P62813 28-455): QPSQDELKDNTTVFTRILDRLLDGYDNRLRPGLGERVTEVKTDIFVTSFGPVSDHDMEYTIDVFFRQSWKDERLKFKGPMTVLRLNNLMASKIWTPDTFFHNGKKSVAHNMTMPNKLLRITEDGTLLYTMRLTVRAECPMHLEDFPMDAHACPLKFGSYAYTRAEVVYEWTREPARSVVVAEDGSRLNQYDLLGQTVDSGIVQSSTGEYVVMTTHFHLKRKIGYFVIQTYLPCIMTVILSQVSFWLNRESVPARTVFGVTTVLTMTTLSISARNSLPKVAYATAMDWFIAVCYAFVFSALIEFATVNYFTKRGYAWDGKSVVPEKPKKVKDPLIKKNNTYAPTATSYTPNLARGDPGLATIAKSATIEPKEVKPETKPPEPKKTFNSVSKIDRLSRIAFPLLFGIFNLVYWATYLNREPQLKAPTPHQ
T1 sequence (P63079 26-473): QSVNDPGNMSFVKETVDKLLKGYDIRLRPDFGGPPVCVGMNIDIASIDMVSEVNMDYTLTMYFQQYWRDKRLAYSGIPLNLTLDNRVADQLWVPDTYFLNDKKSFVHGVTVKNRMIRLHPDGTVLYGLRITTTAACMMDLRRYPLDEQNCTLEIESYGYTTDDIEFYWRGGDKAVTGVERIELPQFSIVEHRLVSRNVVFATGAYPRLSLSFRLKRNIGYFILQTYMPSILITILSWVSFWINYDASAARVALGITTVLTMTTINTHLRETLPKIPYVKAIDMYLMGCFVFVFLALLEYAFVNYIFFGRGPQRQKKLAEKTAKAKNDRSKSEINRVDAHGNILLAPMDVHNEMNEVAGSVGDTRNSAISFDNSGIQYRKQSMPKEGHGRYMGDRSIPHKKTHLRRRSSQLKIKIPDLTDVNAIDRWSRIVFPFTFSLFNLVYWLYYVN
Method: Preparation of stage V-VI oocytes from Xenopus laevis and synthesis of capped off run-off poly(A^+) cRNA transcripts from linearized cDNA templates (pCMV vector) were performed as described (Khom et al. 2006). Briefly, female Xenopus laevis (NASCO, USA) were anaesthetised by exposing them for 15 minutes to a 0.2% solution of MS-222 (methane sulfonate salt of 3-aminobenzoic acid ethyl ester; Sandoz) before surgically removing parts of the ovaries. Follicle membranes from isolated oocytes were enzymatically digested with 2 mg/ml collagenase (Type 1A, Sigma). One day after isolation, the oocytes were injected with about 10-50 nl of DEPC-treated water (diethyl pyrocarbonate, Sigma, Germany) containing the different cRNAs at a concentration of approximately 300-3000 pg/nl/subunit. The amount of cRNA was determined by means of a Nanoprop ND-1000 (Kisker-biotech, Steinfurt, Germany).
cRNAs were mixed in a ratio of 1:1 for the expression of α1β3 receptors. Oocytes were stored at 18° C. in ND96 solution (Methfessel et al., 1986). Electrophysiological experiments were done using the two-microelectrode voltage-clamp method at a holding potential of −70 mV making use of a TURBO TEC 01C amplifier (npi electronic, Tamm, Germany) and an Axon Digidata 1322A interface (Molecular Devices, Sunnyvale, Calif.). Data acquisition was carried out using pCLAMP v.9.2. The bath solution contained 90 mM NaCl, 1 mM KCl, 1 mM MgCl2.6H2O, 1 mM CaCl2 and 5 mM HEPES (pH 7.4). Microelectrodes were filled with 2M KCl and had resistances between 1 and 3 MΩ (Khom et al., 2007).
GABA and valerenic acid derivatives, respectively, were applied by means of fast perfusion system (see Baburin et al. 2006 for details; Khom et al. 2006). Drug or control solutions were applied by means of a TECAN Miniprep 60 permitting automation of the experiments. To elicit IGABA the chamber was perfused with 120 μl of GABA-containing solution at a rate of between 300 and 1000 μl/s. The IGABA rise time was in the range of between 100 and 250 ms (see Khom et al. 2006). Care was taken to account for possible slow recovery from increasing levels of desensitization in the presence of high GABA, valerenic acid and derivatives concentrations. Oocytes with maximal current amplitudes >3 μA were discarded to exclude voltage-clamp errors (Khom et al., 2006; Baburin et al., 2006; Khom et al., 2007).
Stimulation of chloride currents by modulators of the GABAA receptor was measured at a GABA concentration eliciting between 3% and 5% of the maximal current amplitude (EC3-5). The EC3-5 was determined at the beginning of each experiment. Enhancement of the chloride current was defined as (I(GABA+Comp)/IGABA)−1, where I(GABA+Comp) is the current response in the presence of a given compound (valerenic acid or derivative) and IGABA is the control GABA current. To measure the sensitivity of the GABAA receptor for a given compound, the compound was applied for an equilibration period of 1 minute before applying GABA (EC3-5). Concentration-response curves were generated and the data were fitted by non-linear regression analysis using Origin software (OriginLab Corporation, USA). Data were fitted to the equation:
[formula] where nH is the Hill coefficient. Each data point represents the mean±S.E. from at least 4 oocytes and 2 oocyte batches. Statistical significance was calculated using the paired Student t-test with a confidence interval of p<0.05 (Khom et al., 2007). 4.2.2. Modulation of IGABA by VA Derivatives
Furthermore, the modulation of IGABA by VA derivatives was investigated at a GABA EC3-5 concentration in a system as outlined under 4.2.1, i.e. on recombinant GABAA receptors expressed in Xenopus laevis oocytes. Thus, modulation of IGABA by VA derivatives was studied on GABAA channels composed of α1β3 subunits.

mice (C57B1/6N) = experiment: Mouse Elevated Plus Maze (EPM) test; assay type: in vivo; settings: 3 mg/kg BW, injected 30 min prior to testing, assessed over 5 minutes
Method: Male mice (C57B1/6N) were obtained from Charles River Laboratories (Germany). For breeding and maintenance mice were housed in groups with free access to food and water.
Temperature was fixed to 23±1C and 60% humidity with a 12 h light-dark cycle (lights on 0700-1900 hours). Age and testing experience matched male mice at 3-8 months for all experiments. All procedures involving animals were approved by the Austrian Animal Experimentation Ethics Board in compliance with the European convention for the protection of vertebrate animals used for experimental and other scientific purposes ETS no.: 123.
Mice were transferred to the testing facility 24 h before commencement of experiments. Tests were performed between 0900 and 1300 hours. All tests were video monitored and evaluated by an experimenter blinded to the administered compound. […]
Behaviour was tested over 5 minutes on an elevated plus maze (1 meter above ground) consisting of two closed and two open arms, each 50 cm×5 cm in size. […] Analysis of open and closed arm entries and time on open arm was automatically recorded using Video-Mot 2 equipment and software (Wittmann et al., 2008). […]

c57B1/6N mice = experiment: Seizure threshold by pentylenetetrazole (PTZ) tail-vein infusion; assay type: in vivo; settings: for seizure threshold: intraperitoneally, 30 min prior to test
Method: Seizure threshold was determined by pentylenetetrazole (PTZ) tail-vein infusion at a rate of 100 μl/min ([…] PTZ in saline, pH 7.4) on freely moving animals. 30 min prior to test c57B1/6N mice were intraperitoneally injected with either saline (=control group), VA or VA derivatives at the indicated concentrations. […] Animals were immediately anaesthetized using increasing carbon dioxide concentrations and killed by cervical displacement. The seizure threshold dose was calculated from the infused volume in relation to body weight. Results from tail-vein infusion were verified by intraperitoneal injection of a fixed dose of 30 mg PTZ/kg body weight. Animals were observed and video-tracked for 20 min after treatment.

| EC50 [1] [µM] | Hill-Coefficient (nH) [1] | Emax [1] [%] | SMILES | anticonvulsant effects (in words) (c57B1/6N mice; 30 mg/kg bodyweight) | also measured |
| --- | --- | --- | --- | --- | --- |
| 13.7 ± 2.3 | 1.6 ± 0.2 |  | CC1=C2[C@H](/C=C(\C)C(N)=O)CC[C@@H](C)[C@H]2CC1 [VA-A, (E)-3-((4S,7R,7aR)-3,7-dimethyl-2,4,5,6,7,7a-hexahydro-1H-inden-4-yl)-2-methylacrylamide] |  | time spent in the open arms of the EPM, % of total time in the test (mice (C57B1/6N)): 52.1±3.9%; anticonvulsant effect compared among tested substances (c57B1/6N mice; 3 mg/kg bodyweight): most pronounced; seizure threshold (c57B1/6N mice; 3 mg/kg bodyweight): 58.6±3.7 mg PTZ/kg |
| 22.5 ± 6 | 1.5 ± 0.3 | 506 ± 76 | CC1=C2[C@H](/C=C(\C)C(=O)NC(C)C)CC[C@@H](C)[C@H]2CC1 [VA-IPA, (E)-3-((4S,7R,7aR)-3,7-dimethyl-2,4,5,6,7,7a-hexahydro-1H-inden-4-yl)-N-isopropyl-2-methylacrylamide] |  |  |
| 18.8 ± 6.9 | 1.1 ± 0.2 | 569 ± 57 | CCCCNC(=O)/C(C)=C/[C@@H]1CC[C@@H](C)[C@H]2CCC(C)=C12 [VA-BA, (E)-N-butyl-3-((4S,7R,7aR)-3,7-dimethyl-2,4,5,6,7,7a-hexahydro-1H-inden-4-yl)-2-methylacrylamide] |  |  |
| 54.6 ± 17 | 1.6 ± 0.3 |  | CC1=C2[C@H](/C=C(\C)C(=O)N3CCCCC3)CC[C@@H](C)[C@H]2CC1 [VA-PIP, (E)-3-((4S,7R,7aR)-3,7-dimethyl-2,4,5,6,7,7a-hexahydro-1H-inden-4-yl)-2-methyl-1-(piperidin-1-yl)prop-2-en-1-one] |  |  |
|  |  |  | CC1=C2[C@H](/C=C(\C)C(=O)O)CC[C@@H](C)[C@H]2CC1 [VA, (E)-3-[(4S,7R,7aR)-3,7-dimethyl-2,4,5,6,7,7a-hexahydro-1H-inden-4-yl]-2-methylprop-2-enoic acid, reference compound] |  | seizure threshold (c57B1/6N mice; 3 mg/kg bodyweight): 47.7±2.7 mg PTZ/kg; seizure threshold (in words) (c57B1/6N mice; concentrations ≧3 mg/kg bodyweight, vs. saline): significantly increased |
| 26.3 ± 6.6 | 1.4 ± 0.1 |  | CNC(=O)/C(C)=C/[C@@H]1CC[C@@H](C)[C@H]2CCC(C)=C12 [VA-MA, (E)-3-((4S,7R,7aR)-3,7-dimethyl-2,4,5,6,7,7a-hexahydro-1H-inden-4-yl)-N,2-dimethylacrylamide] | significantly increased | anticonvulsant effect compared among tested substances (c57B1/6N mice; 30 mg/kg bodyweight): strongest anticonvulsant effect |
| 23.7 ± 6.3 | 1.4 ± 0.1 | 901 ± 120 | CCN(CC)C(=O)/C(C)=C/[C@@H]1CC[C@@H](C)[C@H]2CCC(C)=C12 [VA-DEA, (E)-3-((4S,7R,7aR)-3,7-dimethyl-2,4,5,6,7,7a-hexahydro-1H-inden-4-yl)-N,N-diethyl-2-methylacrylamide] | significantly increased |  |
| 28.4 ± 7.1 | 2.1 ± 0.5 |  | CC1=C2[C@H](/C=C(\C)C(=O)N(C)C)CC[C@@H](C)[C@H]2CC1 [VA-DMA, (E)-3-((4S,7R,7aR)-3,7-dimethyl-2,4,5,6,7,7a-hexahydro-1H-inden-4-yl)-N,N,2-trimethylacrylamide] |  |  |
| 64.2 ± 13.8 | 1.6 ± 0.2 |  | CC1=C2[C@H](/C=C(\C)C(=O)N3CCOCC3)CC[C@@H](C)[C@H]2CC1 [VA-MO, (E)-3-((4S,7R,7aR)-3,7-dimethyl-2,4,5,6,7,7a-hexahydro-1H-inden-4-yl)-2-methyl-1-morpholinoprop-2-en-1-one] |  |  |
| 23.4 ± 6.9 | 1.3 ± 0.3 |  | CCNC(=O)/C(C)=C/[C@@H]1CC[C@@H](C)[C@H]2CCC(C)=C12 [VA-EA] | significantly increased |  |

Source: patent US8809395B2, “Methods for making valerenic acid derivatives and their use” (Valericon GmbH, priority 2009, dated 2014)
